Several values for one entry are separate records, joined by “and”; a condition that tells them apart may be missing. Equal entries are not always repeated. Where two headings read alike, the source gives them in different places.
Biological target: T1, CPV-2 NS1 endonuclease (Canine parvovirus type 2, UniProt P12929)
T1 construct: hexahistidine (N); hexahistidine (C); made in house; host or cells: E. coli BL21 (De3) pLysS
Assay: FRET nicking assay, inhibition of recombinant CPV-2 NS1 endonuclease
Type: biochemical, Canine parvovirus type 2 (CPV-2)
Details: for Inhibition (%) at 50 μM: 50 μM inhibitor; for IC50: single compounds, 1.25 μg endonuclease, pH 7.0, 300 mM NaCl, 37°C, curcumin by 4PL, others by linear regression
Description: The fluorescence resonance energy transfer (FRET) substrate, which was composed of an oligonucleotide 5¢-TAA CCT TAC CAT AAG TA↓T CAA TCT GTC TTT-3¢ labeled with carboxyfluorescein (FAM) at the 5¢-terminus and black hole quencher 1 (BHQ1) at the 3¢-terminus as the energy transfer pair, was designed and synthesized by Bioneer Corp. (Korea) (Fig. S1).
cDNA of the CPV-2 NS1 endonuclease gene was synthesized after codon optimization (Genscript, USA) based on the N-terminal amino acid sequence (amino acids 1–277 of the DNA-binding region) of CPV-2 NS1 endonuclease (GenBank Accession No. AAV36764.1) (Fig. S2). The CPV-2 NS1 endonuclease gene was imbedded into the pET-28a (+) vector (Novagen, Germany) with hexahistidine tags at the N- and C-termini. The plasmids were transformed into E. coli BL21 (De3) pLysS (Invitrogen, USA) for expression. The transformed cells were cultured in 1 L of LB containing 30 μg/ml kanamycin at 37°C until the OD600 reached 0.6. Next, protein expression was induced with 1 mM isopropyl β-D-1-thiogalactopyranoside (IPTG) at 24°C for 20 h. Cells were harvested by centrifugation at 12,000 ×g for 25 min and 4°C. The pellet was resuspended in 50 ml 50 mM Tris-HCl buffer (pH 7.0) containing 300 mM NaCl and disrupted by sonication. After centrifugation at 12,000 ×g for 30 min and 4°C, the supernatant was applied to a Ni-NTA agarose column (Qiagen, Germany) and washed with 50 mM Tris-HCl buffer (pH 8.0) containing 300 mM NaCl and 20 mM imidazole. CPV-2 NS1 endonuclease was eluted with 50 mM Tris-HCl buffer (pH 8.0) containing 300 mM NaCl, and 250 mM imidazole, and dialyzed against 50 mM Tris-HCl (pH 7.0) containing 300 mM NaCl at 4°C overnight. The purified protein was stored at −20°C until required.
CPV-2 NS1 endonuclease activity was measured using an FRET substrate as described above. The reaction mixture was composed of 1.25 μg endonuclease and 0.6 μM FRET in 50 mM Tris-HCl buffer (pH 7.0). The reaction was run at 37°C with continuous monitoring of fluorescence for 10 min. Relative fluorescence units (RFUs) were measured using a SpectraMax M3 fluorescence plate reader (Molecular Devices, USA) with an excitation wavelength of 495 nm and an emission wavelength of 517 nm.
Thirty-one compounds, extracted sesame cake, turmeric, and yerba mate were tested for inhibitory effects against CPV-2 NS1 endonuclease. For screening, thirty-one compounds, turmeric, and yerba mate were dissolved in dimethyl sulfoxide (DMSO) to 5 mM or 10 mg/ml as stock solutions. Sesame cake extract (10 mg/ml) was solubilized in water. The reaction was initiated by adding 0.6 μM FRET substrate to a mixture of 50 μM compound and 1.25 μg endonuclease in 50 mM Tris-HCl buffer (pH 7.0) containing 300 mM NaCl. The reaction was run at 37°C for 3 min using a SpectraMax M3 fluorescence plate reader with an excitation wavelength of 495 nm and emission wavelength of 517 nm. Inhibitory activity was calculated using the following equation:
Inhibition activity (%) 100-[(S-S0)÷(C-C0)]×100
where C is RFU of the control (enzyme, buffer, and substrate) after a 3 min reaction, C0 is the RFU of the control at 0 min, S is the RFU of the sample (enzyme, buffer, inhibitor, and substrate) after 3 min, and S0 is the RFU of the sample at 0 min.
We determined the 50% inhibitory concentrations (IC50) of the six natural compounds, extracted turmeric, yerba mate, and sesame cake relative to the inhibitor-free control. The IC50 values of curcumin, and extracted sesame cake were calculated using a four-parameter logistic curve (4PL) using Prism v. 8 software (GraphPad Software Inc., USA). […] 8 software.

[1] = pH 7, 50 μM inhibitor, 0.6 μM FRET substrate, 1.25 μg enzyme, 50 mM Tris/HCl pH 7.0, 37°C, 3 min, read-out: Inhibition (%) at 50 μM
[2] = 0.6 μM FRET substrate, 1.25 μg enzyme, 50 mM Tris/HCl pH 7.0, 37°C, 3 min
[3] = pH 7, read-out: Inhibition (%) at 50 μM, 50 μM inhibitor, 0.6 μM FRET substrate, 1.25 μg enzyme, 50 mM Tris/HCl pH 7.0, 37°C, 3 min

T1 sequence (P12929 1-277): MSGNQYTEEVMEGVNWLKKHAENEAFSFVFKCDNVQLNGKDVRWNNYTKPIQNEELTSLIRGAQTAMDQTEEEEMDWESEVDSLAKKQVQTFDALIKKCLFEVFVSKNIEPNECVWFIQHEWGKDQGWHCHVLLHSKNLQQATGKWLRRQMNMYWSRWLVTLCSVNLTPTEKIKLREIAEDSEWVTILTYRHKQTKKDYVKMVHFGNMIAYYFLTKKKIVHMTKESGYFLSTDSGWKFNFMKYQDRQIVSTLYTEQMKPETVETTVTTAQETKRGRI

Structure (SMILES) | inhibition at 50 µM [1] | Inhibition (%) at 50 μM [2] | other results
CC1=C(C/C=C(\C)CCC[C@H](C)CCC[C@H](C)CCCC(C)C)C(=O)c2ccccc2C1=O [Vitamin K1] | 68 ± 15% | – | –
O=C(/C=C/C=C/c1ccc2c(c1)OCO2)N1CCCCC1 [Piperine] | 0% | did not inhibit | –
O=c1c2cc(O)c(O)cc2oc2cc(O)c([C@@H]3O[C@H](CO)[C@@H](O)[C@H](O)[C@H]3O)c(O)c12 [Mangiferin] | 0% | did not inhibit | –
C[C@@H]1O[C@@H](OC[C@H]2O[C@@H](Oc3c(-c4ccc(O)c(O)c4)oc4cc(O)cc(O)c4c3=O)[C@H](O)[C@@H](O)[C@@H]2O)[C@H](O)[C@H](O)[C@H]1O [Rutin] | 0% | did not inhibit | –
O=c1c(-c2ccc(O)cc2)coc2cc(O)ccc12 [Daidzein] | – | 22 ± 12% | Inhibition (%) at 50 μM (0.6 μM FRET substrate, 1.25 μg enzyme, 50 mM Tris/HCl pH 7.0, 37°C, 3 min, listed as daidzein): < 50%
O=c1c(-c2ccc(O)cc2)coc2cc(O)cc(O)c12 [Genistein] | – | 45 ± 14% | inhibition at 50 µM [3]: < 50%
O=c1c(O[C@@H]2O[C@H](CO)[C@@H](O)[C@H](O)[C@H]2O)c(-c2ccc(O)cc2)oc2cc(O)cc(O)c12 [Astragalin] | 0% | did not inhibit | –
O=c1c(O)c(-c2ccc(O)c(O)c2)oc2cc(O)ccc12 [Fisetin] | 0% | did not inhibit | –
O=c1c(O)c(-c2cc(O)c(O)c(O)c2)oc2cc(O)cc(O)c12 [Myricetin] | 0% | did not inhibit | –
O=c1c(O)c(-c2ccc(O)c(O)c2)oc2cc(O)cc(O)c12 [Quercetin] | – | 51 ± 3% | Inhibition (%) at 50 μM (0.6 μM FRET substrate, 1.25 μg enzyme, 50 mM Tris/HCl pH 7.0, 37°C, 3 min, listed as quercetin): > 29%
C[C@H]1[C@H](C)CC[C@]2(C(=O)O)CC[C@]3(C)C(=CC[C@@H]4[C@@]5(C)CC[C@H](O)C(C)(C)[C@@H]5CC[C@]43C)[C@H]12 [Ursolic acid] | – | 29 ± 5% | Inhibition (%) at 50 μM (0.6 μM FRET substrate, 1.25 μg enzyme, 50 mM Tris/HCl pH 7.0, 37°C, 3 min, listed as ursolic acid): < 50% and > 29%
Oc1ccc(/C=C/c2cc(O)cc(O)c2)cc1 [Resveratrol] | 0% | did not inhibit | –
CC1(C)CC[C@]2(C(=O)O)CC[C@]3(C)C(=CC[C@@H]4[C@@]5(C)CC[C@H](O)C(C)(C)[C@@H]5CC[C@]43C)[C@@H]2C1 [Oleanolic acid] | – | 51 ± 7% | Inhibition (%) at 50 μM (0.6 μM FRET substrate, 1.25 μg enzyme, 50 mM Tris/HCl pH 7.0, 37°C, 3 min, listed as oleanolic acid): > 29%
O=C1O[C@H]([C@@H](O)CO)C(O)=C1O [L-Ascorbic acid] | 0% | did not inhibit | –
O=C(/C=C/c1ccc(O)c(O)c1)O[C@@H]1C[C@](O)(C(=O)O)C[C@@H](O)[C@H]1O [Chlorogenic acid] | – | 29 ± 4% | Inhibition (%) at 50 μM (0.6 μM FRET substrate, 1.25 μg enzyme, 50 mM Tris/HCl pH 7.0, 37°C, 3 min, listed as chlorogenic acid): < 50% and > 29%
c1cc2c(cc1O[C@H]1OC[C@H]3[C@@H]1CO[C@@H]3c1ccc3c(c1)OCO3)OCO2 [Sesamolin] | 0% | did not inhibit | –
CCCCC/C=C\C/C=C\CCCCCCCC(=O)O [Linoleic acid] | – | 100% | inhibition at 50 µM [3]: > 95%; IC50 (0.6 μM FRET substrate, 3 min): 1140 ± 40 nM
COc1cc(/C=C/C(=O)O)ccc1O [Ferulic acid] | – | 37 ± 5% | Inhibition (%) at 50 μM (0.6 μM FRET substrate, 1.25 μg enzyme, 50 mM Tris/HCl pH 7.0, 37°C, 3 min, listed as ferulic acid): < 50%
c1cc2c(cc1[C@H]1OC[C@H]3[C@@H]1CO[C@@H]3c1ccc3c(c1)OCO3)OCO2 [(+)-Sesamin] | 0% | did not inhibit | –
Cc1c(C)c2c(c(C)c1O)CC[C@@](C)(CCC[C@H](C)CCC[C@H](C)CCCC(C)C)O2 [α-Tocopherol (Vitamin E), α-Tocopherol] | – | 98 ± 3% | inhibition at 50 µM [3]: > 95%; IC50 (0.6 μM FRET substrate, 3 min): 8030 ± 800 nM
O=C(/C=C/c1ccc(O)cc1)CC(=O)/C=C/c1ccc(O)cc1 [Bisdemethoxycurcumin] | – | 100% | inhibition at 50 µM [3]: > 95%; IC50 (0.6 μM FRET substrate, 3 min): 450 ± 50 nM
O=C(O)c1cc(O)c(O)c(O)c1 [Gallic acid] | – | 2 ± 2% | Inhibition (%) at 50 μM (0.6 μM FRET substrate, 1.25 μg enzyme, 50 mM Tris/HCl pH 7.0, 37°C, 3 min, listed as gallic acid): < 50%
O=C(O)/C=C/c1ccc(O)c(O)c1 [Caffeic acid] | – | 42 ± 8% | Inhibition (%) at 50 μM (0.6 μM FRET substrate, 1.25 μg enzyme, 50 mM Tris/HCl pH 7.0, 37°C, 3 min, listed as caffeic acid): < 50% and > 29%
C[N+](C)(C)C[C@H](O)CC(=O)[O-] [L-carnitine] | – | < 50% and 29 ± 2% | –
COc1cc(/C=C/C(=O)CC(=O)/C=C/c2ccc(O)cc2)ccc1O [Demethoxycurcumin] | – | 100% | inhibition at 50 µM [3]: > 95%; IC50 (0.6 μM FRET substrate, 3 min): 630 ± 10 nM
Cn1c(=O)c2c(ncn2C)n(C)c1=O [Caffeine] | – | 7 ± 7% | Inhibition (%) at 50 μM (0.6 μM FRET substrate, 1.25 μg enzyme, 50 mM Tris/HCl pH 7.0, 37°C, 3 min, listed as caffeine): < 50%
Oc1ccc2c(c1)OCO2 [Sesamol] | – | 9 ± 5% | Inhibition (%) at 50 μM (0.6 μM FRET substrate, 1.25 μg enzyme, 50 mM Tris/HCl pH 7.0, 37°C, 3 min, listed as sesamol): < 50%
O=C1C[C@@H](c2ccc(O)cc2)Oc2cc(O)cc(O)c21 [Naringenin] | 0% | did not inhibit | –
O=C(O[C@@H]1Cc2c(O)cc(O)cc2O[C@@H]1c1cc(O)c(O)c(O)c1)c1cc(O)c(O)c(O)c1 [EGCG, epigallocatechin gallate] | – | 49 ± 6% | Inhibition (%) at 50 μM (0.6 μM FRET substrate, 1.25 μg enzyme, 50 mM Tris/HCl pH 7.0, 37°C, 3 min, listed as epigallocatechin gallate): < 50%
